{"source": "patent US20220054513A1", "about": "“COMBINATION COMPOSITIONS COMPRISING A BETA-LACTAMASE INHIBITOR” (VenatoRx Pharmaceuticals, Inc., priority 2018, published 2022)", "tested_on": "Acinetobacter baumannii-calcoaceticus species complex clinical isolates", "assay": "MIC of triple combinations (Compound 1, sulbactam, meropenem or cefepime), 141 clinical isolates", "assay_type": "cell-based", "settings": "Cmpd 1 at 4 μg/mL in combinations", "source_text": "For a more comprehensive assessment of the ability of test compounds to potentiate sulbactam in triple combinations with β-lactams additional MIC assays were utilized.", "data": [{"smiles": "C[C@@H](O)[C@H]1C(=O)N2C(C(=O)O)=C(S[C@@H]3CN[C@H](C(=O)N(C)C)C3)[C@H](C)[C@H]12", "note": "[MEM]", "values": [{"measurement": "MIC", "setting": "strain 993131", "result": 64, "unit": "µg/mL"}, {"measurement": "MIC", "setting": "strain 994180", "result": 2, "unit": "µg/mL"}, {"measurement": "MIC", "setting": "strain 995771", "result": 256, "unit": "µg/mL"}, {"measurement": "MIC", "setting": "strain 996612", "result": 32, "unit": "µg/mL"}, {"measurement": "MIC", "setting": "strain 996869", "result": ">256", "unit": "µg/mL"}, {"measurement": "MIC", "setting": "strain 997574", "result": 256, "unit": "µg/mL"}, {"measurement": "MIC", "setting": "strain 998107", "result": 64, "unit": "µg/mL"}, {"measurement": "MIC", "setting": "strain 998532", "result": 256, "unit": "µg/mL"}, {"measurement": "MIC", "setting": "strain 998898", "result": 32, "unit": "µg/mL"}, {"measurement": "MIC", "setting": "strain 998907", "result": 16, "unit": "µg/mL"}, {"measurement": "MIC", "setting": "strain 999306", "result": 2, "unit": "µg/mL"}, {"measurement": "MIC", "setting": "strain 1001007", "result": 256, "unit": "µg/mL"}, {"measurement": "MIC", "setting": "strain 1001611", "result": 32, "unit": "µg/mL"}, {"measurement": "MIC", "setting": "strain 1002208", "result": 64, "unit": "µg/mL"}, {"measurement": "MIC", "setting": "strain 1002952", "result": ">256", "unit": "µg/mL"}, {"measurement": "MIC", "setting": "strain 1002960", "result": ">256", "unit": "µg/mL"}, {"measurement": "MIC", "setting": "strain 1003557", "result": 256, "unit": "µg/mL"}, {"measurement": "MIC", "setting": "strain 1003787", "result": ">256", "unit": "µg/mL"}, {"measurement": "MIC", "setting": "strain 1008508", "result": ">256", "unit": "µg/mL"}, {"measurement": "MIC", "setting": "strain 1008510", "result": 256, "unit": "µg/mL"}, {"measurement": "MIC", "setting": "strain 1010245", "result": 64, "unit": "µg/mL"}, {"measurement": "MIC", "setting": "strain 1010331", "result": 64, "unit": "µg/mL"}, {"measurement": "MIC", "setting": "strain 1011959", "result": 64, "unit": "µg/mL"}, {"measurement": "MIC", "setting": "strain 1013022", "result": 256, "unit": "µg/mL"}, {"measurement": "MIC", "setting": "strain 1013035", "result": 256, "unit": "µg/mL"}, {"measurement": "MIC", "setting": "strain 1013055", "result": 32, "unit": "µg/mL"}, {"measurement": "MIC", "setting": "strain 1013322", "result": 64, "unit": "µg/mL"}, {"measurement": "MIC", "setting": "strain 1014143", "result": 8, "unit": "µg/mL"}, {"measurement": "MIC", "setting": "strain 1014646", "result": 64, "unit": "µg/mL"}, {"measurement": "MIC", "setting": "strain 1014815", "result": 256, "unit": "µg/mL"}, {"measurement": "MIC", "setting": "strain 1014866", "result": 64, "unit": "µg/mL"}, {"measurement": "MIC", "setting": "strain 1014870", "result": 256, "unit": "µg/mL"}, {"measurement": "MIC", "setting": "strain 1014878", "result": 64, "unit": "µg/mL"}, {"measurement": "MIC", "setting": "strain 1018109", "result": 0.25, "unit": "µg/mL"}, {"measurement": "MIC", "setting": "strain 1018801", "result": 256, "unit": "µg/mL"}, {"measurement": "MIC", "setting": "strain 1018802", "result": 256, "unit": "µg/mL"}, {"measurement": "MIC", "setting": "strain 1018807", "result": 64, "unit": "µg/mL"}, {"measurement": "MIC", "setting": "strain 1018851", "result": 256, "unit": "µg/mL"}, {"measurement": "MIC", "setting": "strain 1019086", "result": 256, "unit": "µg/mL"}, {"measurement": "MIC", "setting": "strain 1023031", "result": ">256", "unit": "µg/mL"}, {"measurement": "MIC", "setting": "strain 1023034", "result": 64, "unit": "µg/mL"}, {"measurement": "MIC", "setting": "strain 1023074", "result": 32, "unit": "µg/mL"}, {"measurement": "MIC", "setting": "strain 1023207", "result": 32, "unit": "µg/mL"}, {"measurement": "MIC", "setting": "strain 1023329", "result": 64, "unit": "µg/mL"}, {"measurement": "MIC", "setting": "strain 1024119", "result": 4, "unit": "µg/mL"}, {"measurement": "MIC", "setting": "strain 1026990", "result": 256, "unit": "µg/mL"}, {"measurement": "MIC", "setting": "strain 1026992", "result": 32, "unit": "µg/mL"}, {"measurement": "MIC", "setting": "strain 1027234", "result": 64, "unit": "µg/mL"}, {"measurement": "MIC", "setting": "strain 1027590", "result": 256, "unit": "µg/mL"}, {"measurement": "MIC", "setting": "strain 1027603", "result": 64, "unit": "µg/mL"}, {"measurement": "MIC", "setting": "strain 1027748", "result": 32, "unit": "µg/mL"}, {"measurement": "MIC", "setting": "strain 1028193", "result": ">256", "unit": "µg/mL"}, {"measurement": "MIC", "setting": "strain 1029770", "result": ">256", "unit": "µg/mL"}, {"measurement": "MIC", "setting": "strain 1029913", "result": 32, "unit": "µg/mL"}, {"measurement": "MIC", "setting": "strain 1030427", "result": 256, "unit": "µg/mL"}, {"measurement": "MIC", "setting": "strain 1031167", "result": 256, "unit": "µg/mL"}, {"measurement": "MIC", "setting": "strain 1031191", "result": 64, "unit": "µg/mL"}, {"measurement": "MIC", "setting": "strain 1031211", "result": 64, "unit": "µg/mL"}, {"measurement": "MIC", "setting": "strain 1031238", "result": 256, "unit": "µg/mL"}, {"measurement": "MIC", "setting": "strain 1032669", "result": 64, "unit": "µg/mL"}, {"measurement": "MIC", "setting": "strain 1032761", "result": 256, "unit": "µg/mL"}, {"measurement": "MIC", "setting": "strain 1033340", "result": 256, "unit": "µg/mL"}, {"measurement": "MIC", "setting": "strain 1033979", "result": 256, "unit": "µg/mL"}, {"measurement": "MIC", "setting": "strain 1034048", "result": 256, "unit": "µg/mL"}, {"measurement": "MIC", "setting": "strain 1034912", "result": 64, "unit": "µg/mL"}, {"measurement": "MIC", "setting": "strain 1034913", "result": 64, "unit": "µg/mL"}, {"measurement": "MIC", "setting": "strain 1034916", "result": 64, "unit": "µg/mL"}, {"measurement": "MIC", "setting": "strain 1034925", "result": 64, "unit": "µg/mL"}, {"measurement": "MIC", "setting": "strain 1034962", "result": 64, "unit": "µg/mL"}, {"measurement": "MIC", "setting": "strain 1035144", "result": 256, "unit": "µg/mL"}, {"measurement": "MIC", "setting": "strain 1035788", "result": 64, "unit": "µg/mL"}, {"measurement": "MIC", "setting": "strain 1035794", "result": 32, "unit": "µg/mL"}, {"measurement": "MIC", "setting": "strain 1035808", "result": 16, "unit": "µg/mL"}, {"measurement": "MIC", "setting": "strain 1035825", "result": 64, "unit": "µg/mL"}, {"measurement": "MIC", "setting": "strain 1036045", "result": 64, "unit": "µg/mL"}, {"measurement": "MIC", "setting": "strain 1036068", "result": 64, "unit": "µg/mL"}, {"measurement": "MIC", "setting": "strain 1036734", "result": 64, "unit": "µg/mL"}, {"measurement": "MIC", "setting": "strain 1036768", "result": 8, "unit": "µg/mL"}, {"measurement": "MIC", "setting": "strain 1036781", "result": ">256", "unit": "µg/mL"}, {"measurement": "MIC", "setting": "strain 1036859", "result": 64, "unit": "µg/mL"}, {"measurement": "MIC", "setting": "strain 1036882", "result": 256, "unit": "µg/mL"}, {"measurement": "MIC", "setting": "strain 1036921", "result": 1, "unit": "µg/mL"}, {"measurement": "MIC", "setting": "strain 1037193", "result": ">256", "unit": "µg/mL"}, {"measurement": "MIC", "setting": "strain 1037211", "result": 2, "unit": "µg/mL"}, {"measurement": "MIC", "setting": "strain 1037251", "result": 64, "unit": "µg/mL"}, {"measurement": "MIC", "setting": "strain 1037256", "result": 64, "unit": "µg/mL"}, {"measurement": "MIC", "setting": "strain 1037479", "result": 256, "unit": "µg/mL"}, {"measurement": "MIC", "setting": "strain 1037593", "result": 256, "unit": "µg/mL"}, {"measurement": "MIC", "setting": "strain 1037618", "result": 1, "unit": "µg/mL"}, {"measurement": "MIC", "setting": "strain 1037714", "result": 256, "unit": "µg/mL"}, {"measurement": "MIC", "setting": "strain 1037731", "result": 0.5, "unit": "µg/mL"}, {"measurement": "MIC", "setting": "strain 1037732", "result": 256, "unit": "µg/mL"}, {"measurement": "MIC", "setting": "strain 1037738", "result": ">256", "unit": "µg/mL"}, {"measurement": "MIC", "setting": "strain 1037747", "result": 256, "unit": "µg/mL"}, {"measurement": "MIC", "setting": "strain 1038418", "result": 0.25, "unit": "µg/mL"}, {"measurement": "MIC", "setting": "strain 1038439", "result": 0.25, "unit": "µg/mL"}, {"measurement": "MIC", "setting": "strain 1039502", "result": 64, "unit": "µg/mL"}, {"measurement": "MIC", "setting": "strain 1039518", "result": 64, "unit": "µg/mL"}, {"measurement": "MIC", "setting": "strain 1040900", "result": 64, "unit": "µg/mL"}, {"measurement": "MIC", "setting": "strain 1040901", "result": 64, "unit": "µg/mL"}, {"measurement": "MIC", "setting": "strain 1042182", "result": 64, "unit": "µg/mL"}]}]}
